Experimental data from US20140335050A1, “METHODS, COMPOSITIONS, AND KITS FOR THE TREATMENT OF CANCER” (The General Hospital Corporation, priority 2011, published 2014).

Assays:
Format in all cases: cell-based, human
U2-OS osteosarcoma cells = assay: Surface antibody staining and flow cytometry (MHC Class I/II)
Procedure: (§1) Intracellular staining and flow cytometric analyses of cytoplasmic Melan-A/MART-1, and gp100 expression were performed as described previously. Cells were fixed with 1% formaldehyde, permeabilized with 0.1% saponin, stained with monoclonal antibodies to melanocyte antigens. Antibodies were obtained with specificity for: Melan-A/MART-1 from Vector Labs (Burlingame, Calif.); gp100/HMB45 from DakoCytomation (Carpinteria, Calif.) and then visualized with goat anti-mouse FITC-conjugated secondary antibody from Invitrogen (Frederick, Md.). The level of EGFP was determined by flow cytometry of unfixed cells washed and resuspended in 1×PBS. Surface staining of MHC Class I was carried out using the antibody W6/32 on cells harvested with Cell Stripper from MediaTech Inc. (Manassas, Va.) and carried out on ice.
Cell were seeded at 1×10^6 cells in a T25 flask with 10 ml of media for the 4 day IFN-beta pre-treatments. Cells were then harvested and plated in 24 well plate at 1×10^5 cells per well in 1 ml of media for 3 day treatments.
For surface staining of HLA Class I and II antigens, cells were harvested using CellStripper™ from Mediatech (Manassas, Va.). All staining steps were performed on ice. Following a first incubation with antibody to Class I (W6/32) or Class II (L243) for 30 minutes. Stained cells were washed twice with cold PBS and then stained with a goat anti-mouse FITC secondary antibody to allow for quantitative analysis by flow cytometry. For evaluation of cytoplasmic antigens, including Melan-A/MART-1 and gp100, cells were first fixed in paraformaldehyde and permeabilized with saponin as previously described. Staining for cytoplasmic antigens was carried out at room temperature (22° C.).

A375 tumor cells = assay: Western blot (BRAF, phosphorylated MEK and ERK)
Procedure: FIG. 17 is a series of Western blots that show changes in protein levels and state of phosphorylation after treatment with an Hsp90 inhibitor. A primary Anti BRAF (H145) antibody was used at a 1:5000 dilution. A secondary Goat anti rabbit antibody was used at a dilution of 1:5000. 30 ug total protein was added to each well.
Cell lysates were prepared using RIPA buffer from Santa Cruz (Santa Cruz, Calif.) containing protease and phosphatase inhibitors. Protein concentrations were determined using Bradford assay from BioRad (Hercules, Calif.). Equal amounts of protein were loaded in each well for PAGE analysis. Proteins were transferred to PVDF membranes from Pierce Biotechnology (Rockford, Ill.). Blocking and both primary and secondary antibody incubations were performed using Starting Block from Pierce (Rockford, Ill.). Blots were washed with 1×TBS with 0.5% tween 20. Primary antibodies used BRAF H-145 and TRP-2 from Santa Cruz (Santa Cruz, Calif.), and Phos ERK from Cell Signaling Technologies (Danvers, Mass.) beta actin from Sigma (St. Louis, Mo.). Goat anti-rabbit HRP conjugated secondary antibody was purchased from Pierce (Rockford, Ill.). Chemiluminesce was performed using the Femto kit form Pierce (Rockford, Ill.). […] Sizes of proteins were determined by comparison to the Broad prestained protein standard ladder from BioRad (Hercules, Calif.).

[1] = system: MM96L+ melanoma cell line; assay: Intracellular antibody staining and flow cytometry (Melan-A/MART-1, gp100/HMB45); details: MM96L+ (BRAF M/WT, NRAS WT); 3 days; 17-AEP 1.00, CCT018159 5.00, PU-H71 0.30 μg/ml
Procedure: Several cell lines expressing varying native-sequences, (wild-type (WT) or mutant (M) alleles of these genes were evaluated), to determine if there is a relationship between levels of Hsp90 inhibitor-mediated antigen up-regulation and BRAF and NRAS mutational status. Mutant status of the NRAS and BRAF loci were determined previously.
Cells were plated at a density of 1×10^5 in 1 ml of medium in a 24-well plate and cultured for varying times as indicated in results. Typically, 3 days of culture in the presence of Hsp90 inhibitors was optimal for the functional studies performed. After incubation, cells were collected by trypsinization and then evaluated by flow cytometry.
as §1, with “Surface staining of MHC Class I was carried out using the antibody W6/32 on cells harvested with Cell Stripper from MediaTech Inc. (Manassas, Va.) and carried out on ice.” left out

[2] = U2-OS cells, Table 20, single agent or simultaneous combination
[3] = U2-OS, three days, IFN-β 5000 Units/ml, IFN-γ 100 ng/ml, PU-H71 0.3 mg/ml

`CC(C)NCCCn1c(Sc2cc3c(cc2I)OCO3)nc2c(N)ncnc21` [PU-H71] was tested, and the “L243 (MHC Class II surface staining)” value (U2-OS osteosarcoma cells; [2]) was 1.9, the “W6/32 (MHC Class I surface staining)” value (U2-OS osteosarcoma cells; [2]) was 109.0 and the “Class I induction, combination” value (U2-OS osteosarcoma cells; U2-OS, PU-H71 in combination with interferons) was “highest levels are achieved”. For the same molecule, the “Class II antigen induction seen with IFN-gamma, combination” value (U2-OS osteosarcoma cells; U2-OS, PU-H71 together with IFN-gamma) was “prevented”, the “L243 (MHC Class II surface staining)” value (U2-OS osteosarcoma cells; U2-OS, single agent) was 1.8 and the “MHC Class I, geometric mean of surface staining (W6/32)” value (U2-OS osteosarcoma cells; [3]) was 87. For the same molecule, the “MHC Class II, geometric mean of surface staining (L2443)” value (U2-OS osteosarcoma cells; [3]) was 4 and the “MHC Class I, geometric mean of surface staining (W6/32)” value (U2-OS osteosarcoma cells; U2-OS, three days, IFN-β 5000 Units/ml, PU-H71 0.075-0.3 mg/ml) was 108.
With `CO[C@H]1/C=C\C=C(/C)C(=O)NC2=CC(=O)C(NCCN3CCCC3)=C(C[C@@H](C)C[C@H](OC)[C@H](O)[C@@H](C)/C=C(\C)[C@@H]1OC(N)=O)C2=O` [17-AEP] the “BRAF protein level (Western blot)” value (A375 tumor cells; 3 days) was “reduces levels of BRAF” and the “Phosphorylated MEK and Phosphorylated ERK levels (Western blot)” value (A375 tumor cells; 3 days (FIG. 17)) was “decreased levels”.
With `CCc1cc(-c2n[nH]c(C)c2-c2ccc3c(c2)OCCO3)c(O)cc1O` [CCT018159] the “HMB45, level of induction relative to untreated control cells” value [1] was 1.81 and the “MART-1, level of induction relative to untreated control cells” value [1] was 3.04.
